From patent US20130053430A1, “MODULATION OF CETP EXPRESSION” (Isis Pharmaceuticals, Inc., priority 2010, published 2013)
e = 2'-O-(2-methoxyethyl) (MOE); d = 2'-deoxy (DNA)

Tests used:
[1] = Organ weights (Example 6); type: in vivo, mice; conditions: 50 mg/kg s.c. twice per week for 6 weeks, end of study
Description: (§1) The normal chow-fed mice were divided into three treatment groups. The cholesterol-enriched chow-fed mice were divided into three treatment groups. […] One chow-fed group and one cholesterol-enriched chow-fed group received subcutaneous injections of saline twice weekly for 6 weeks. The saline-injected groups served as the control groups to which the corresponding oligonucleotide-treated groups were compared.

[2] = Plasma cholesterol and triglyceride levels in huCETP transgenic mice (Example 5); type: in vivo; conditions: 50 mg/kg i.p. twice per week
Protocol: (§2) The mice were divided into five treatment groups. The first four groups received intraperitoneal injections of ISIS 349511, ISIS 349512, ISIS 349515, or ISIS 349517 at a dose of 50 mg/kg twice per week for 6 weeks. The fifth group received intraperitoneal injections of saline twice weekly for 6 weeks.
Plasma cholesterol were extracted at weeks 3 and 6 by the method of Bligh and Dyer (Bligh, E. G. and Dyer, W. J. Can. J. Biochem. Physiol. 37: 911-917, 1959) and measured with an Olympus clinical analyzer (Hitachi Olympus AU400e, Melville, N.Y.). HDL, LDL and VLDL cholesterol were individually measured by HPLC. Triglyceride levels were measured with the use of a commercially available triglyceride kit (DCL Triglyceride Reagent; Diagnostic Chemicals Ltd.). The results are presented in Tables 13 and 14 and are expressed in mg/dL. There was a significant increase in HDL levels in mice treated with ISIS oligonucleotides.

[3] = Liver function, plasma ALT and AST, dose response (Example 9); type: in vivo, mice
Protocol: Another group received subcutaneous injections of control oligonucleotide ISIS 141923 at a dose of 50 mg/kg/week for 6 weeks. One group of mice received subcutaneous injections of PBS for 6 weeks. The PBS-injected group served as the control group to which treatment groups were compared.

[4] = Plasma cholesterol and triglyceride levels (Example 6); type: in vivo, mice; conditions: 50 mg/kg s.c. twice per week
Description: as §1
Plasma cholesterol were extracted at weeks 3 and 6 by the method of Bligh and Dyer (Bligh, E. G. and Dyer, W. J. Can. J. Biochem. Physiol. 37: 911-917, 1959) and measured on weeks 0, 3 and 6 with an Olympus clinical analyzer (Hitachi Olympus AU400e, Melville, N.Y.). HDL, LDL and VLDL cholesterol were individually measured by HPLC. Triglyceride levels were measured on weeks 0, 3 and 6 with the use of a commercially available triglyceride kit (DCL Triglyceride Reagent; Diagnostic Chemicals Ltd.). VLDL levels were measured on week 6. The results are presented in Tables 22-26 and are expressed in mg/dL.

CETP protein [5] = assay: Plasma CETP protein by ELISA, normal or cholesterol-enriched chow (Example 6); type: in vivo, human; conditions: 50 mg/kg s.c. twice per week
Protocol: as §1
(§3) Plasma levels of CETP protein were measured by ELISA (Alpco, N.H.). […] The results are expressed as percentage inhibition compared to the PBS control.

CETP protein [6] = assay: Plasma CETP protein by ELISA in huCETP transgenic mice (Example 5); type: in vivo, human; conditions: normal chow, 50 mg/kg i.p. twice per week for 6 weeks, compared to PBS control
Protocol: as §2, §3

[7] = Plasma cholesterol and triglyceride levels in huApoB/huCETP/mLDLr mouse model (Example 7); type: in vivo, mice
Description: The huApoB^+/−huCETP^+/−mLDLr^+/− mice were divided into five groups of 5-7 mice each. […] The saline-injected group served as the control group to which oligonucleotide-treated groups were compared. […] This group served a negative control for the effects of the antisense oligonucleotides against CETP. The groups are further described in Table 27, and are designated letters A-F, by which they will be referred from henceforth.
HDL and LDL cholesterol were individually measured by HPLC. Triglyceride levels were measured on weeks 0, 3 and 6 with the use of a commercially available triglyceride kit (DCL Triglyceride Reagent; Diagnostic Chemicals Ltd.).

[8] = huApoB+/−huCETP+/−mLDLr+/− mice (Groups B-E), ASO 25 mg/kg s.c. twice/week, Week 0
[9] = huApoB+/−huCETP+/−mLDLr+/− mice (Groups B-E), ASO 25 mg/kg s.c. twice/week, Week 3
[10] = huApoB+/−huCETP+/−mLDLr+/− mice (Groups B-E), ASO 25 mg/kg s.c. twice/week, Week 6
[11] = huApoB+/−huCETP−/−mLDLr+/− mice (Group F), 25 mg/kg s.c. twice/week, Week 0
[12] = huApoB+/−huCETP−/−mLDLr+/− mice (Group F), 25 mg/kg s.c. twice/week, Week 3
[13] = huApoB+/−huCETP−/−mLDLr+/− mice (Group F), 25 mg/kg s.c. twice/week, Week 6

ISIS 349517: 5-10-5 MOE gapmer CAGCACTTTAATGCCAGTGG (sugars from the 5' end e5 d10 e5, backbone and methylation of C not given here)
Kidney weight ([1]; Cholesterol chow): 317 mg | Liver weight ([1]; Cholesterol chow): 1.8 g | Spleen weight ([1]; Cholesterol chow): 93 mg | Kidney weight ([1]; Normal chow): 279 mg | Liver weight ([1]; Normal chow): 1.6 g | Spleen weight ([1]; Normal chow): 113 mg | Percentage of HDL in total cholesterol ([2]; Week 3): 75% | Percentage of HDL in total cholesterol ([2]; week 6): 74% | HDL ([2]; plasma, week 3): 59 mg/dL | LDL ([2]; plasma, week 3): 14 mg/dL | Total cholesterol ([2]; plasma, week 3): 79 mg/dL | Triglycerides ([2]; plasma, week 3): 68 mg/dL | HDL ([2]; plasma, week 6): 55 mg/dL | LDL ([2]; plasma, week 6): 15 mg/dL | Total cholesterol ([2]; plasma, week 6): 75 mg/dL | Triglycerides ([2]; plasma, week 6): 103 mg/dL | VLDL ([2]; plasma, week 6): 4 mg/dL | ALT levels ([3]; 1.5 mg/kg/wk, Week 0): 20 IU/L | AST levels ([3]; 1.5 mg/kg/wk, Week 0): 38 IU/L | ALT levels ([3]; 1.5 mg/kg/wk, Week 3): 18 IU/L | AST levels ([3]; 1.5 mg/kg/wk, Week 3): 43 IU/L | ALT levels ([3]; 1.5 mg/kg/wk, Week 6): 54 IU/L | AST levels ([3]; 1.5 mg/kg/wk, Week 6): 133 IU/L | ALT levels ([3]; 5 mg/kg/wk, Week 0): 26 IU/L | AST levels ([3]; 5 mg/kg/wk, Week 0): 40 IU/L | ALT levels ([3]; 5 mg/kg/wk, Week 3): 25 IU/L | AST levels ([3]; 5 mg/kg/wk, Week 3): 46 IU/L | ALT levels ([3]; 5 mg/kg/wk, Week 6): 49 IU/L | AST levels ([3]; 5 mg/kg/wk, Week 6): 246 IU/L | ALT levels ([3]; 15 mg/kg/wk, Week 0): 24 IU/L | AST levels ([3]; 15 mg/kg/wk, Week 0): 24 IU/L | ALT levels ([3]; 15 mg/kg/wk, Week 3): 27 IU/L | AST levels ([3]; 15 mg/kg/wk, Week 3): 47 IU/L | ALT levels ([3]; 15 mg/kg/wk, Week 6): 36 IU/L | AST levels ([3]; 15 mg/kg/wk, Week 6): 70 IU/L | ALT levels ([3]; 50 mg/kg/wk, Week 0): 27 IU/L | AST levels ([3]; 50 mg/kg/wk, Week 0): 27 IU/L | ALT levels ([3]; 50 mg/kg/wk, Week 3): 33 IU/L | AST levels ([3]; 50 mg/kg/wk, Week 3): 52 IU/L | ALT levels ([3]; 50 mg/kg/wk, Week 6): 76 IU/L | AST levels ([3]; 50 mg/kg/wk, Week 6): 171 IU/L | HDL cholesterol levels ([4]; Cholesterol chow, Week 0): 49 mg/dL | LDL cholesterol levels ([4]; Cholesterol chow, Week 0): 134 mg/dL | Total cholesterol levels ([4]; Cholesterol chow, Week 0): 201 mg/dL | Triglyceride levels ([4]; Cholesterol chow, Week 0): 84 mg/dL | HDL cholesterol levels ([4]; Cholesterol chow, Week 3): 78 mg/dL | LDL cholesterol levels ([4]; Cholesterol chow, Week 3): 597 mg/dL | Total cholesterol levels ([4]; Cholesterol chow, Week 3): 739 mg/dL | Triglyceride levels ([4]; Cholesterol chow, Week 3): 107 mg/dL | HDL cholesterol levels ([4]; Cholesterol chow, Week 6): 122 mg/dL | LDL cholesterol levels ([4]; Cholesterol chow, Week 6): 486 mg/dL | Total cholesterol levels ([4]; Cholesterol chow, Week 6): 695 mg/dL | Triglyceride levels ([4]; Cholesterol chow, Week 6): 102 mg/dL | VLDL cholesterol levels ([4]; Cholesterol chow, Week 6): 88 mg/dL | HDL cholesterol levels ([4]; Normal chow, Week 0): 53 mg/dL | LDL cholesterol levels ([4]; Normal chow, Week 0): 162 mg/dL | Total cholesterol levels ([4]; Normal chow, Week 0): 237 mg/dL | Triglyceride levels ([4]; Normal chow, Week 0): 66 mg/dL | HDL cholesterol levels ([4]; Normal chow, Week 3): 64 mg/dL | LDL cholesterol levels ([4]; Normal chow, Week 3): 146 mg/dL | Total cholesterol levels ([4]; Normal chow, Week 3): 238 mg/dL | Triglyceride levels ([4]; Normal chow, Week 3): 97 mg/dL | HDL cholesterol levels ([4]; Normal chow, Week 6): 100 mg/dL | LDL cholesterol levels ([4]; Normal chow, Week 6): 220 mg/dL | Total cholesterol levels ([4]; Normal chow, Week 6): 375 mg/dL | Triglyceride levels ([4]; Normal chow, Week 6): 91 mg/dL | VLDL cholesterol levels ([4]; Normal chow, Week 6): 55 mg/dL | Percent inhibition of plasma CETP protein levels (CETP protein [5]; Cholesterol chow, Week 3): 97% | Percent inhibition of plasma CETP protein levels (CETP protein [5]; Cholesterol chow, Week 6): 96% | Percent inhibition of plasma CETP protein levels (CETP protein [5]; Normal chow, Week 3): 95% | Percent inhibition of plasma CETP protein levels (CETP protein [5]; Normal chow, Week 6): 91% | Percent inhibition of plasma CETP protein levels (CETP protein [6]): 86% | % HDL/total cholesterol [7, 8]: 25% | HDL cholesterol levels [7, 8]: 48 mg/dL | LDL cholesterol levels [7, 8]: 116 mg/dL | Total cholesterol levels [7, 8]: 193 mg/dL | Triglyceride levels [7, 8]: 142 mg/dL | % HDL/total cholesterol [7, 9]: 40% | HDL cholesterol levels [7, 9]: 68 mg/dL | LDL cholesterol levels [7, 9]: 87 mg/dL | Total cholesterol levels [7, 9]: 171 mg/dL | Triglyceride levels [7, 9]: 177 mg/dL | % HDL/total cholesterol [7, 10]: 37% | HDL cholesterol levels [7, 10]: 72 mg/dL | LDL cholesterol levels [7, 10]: 109 mg/dL | Total cholesterol levels [7, 10]: 197 mg/dL | Triglyceride levels [7, 10]: 210 mg/dL | % HDL/total cholesterol [7, 11]: 41% | HDL cholesterol levels [7, 11]: 65 mg/dL | LDL cholesterol levels [7, 11]: 73 mg/dL | Total cholesterol levels [7, 11]: 158 mg/dL | Triglyceride levels [7, 11]: 150 mg/dL | % HDL/total cholesterol [7, 12]: 37% | HDL cholesterol levels [7, 12]: 65 mg/dL | LDL cholesterol levels [7, 12]: 91 mg/dL | Total cholesterol levels [7, 12]: 175 mg/dL | Triglyceride levels [7, 12]: 213 mg/dL | % HDL/total cholesterol [7, 13]: 42% | HDL cholesterol levels [7, 13]: 75 mg/dL | LDL cholesterol levels [7, 13]: 95 mg/dL | Total cholesterol levels [7, 13]: 177 mg/dL | Triglyceride levels [7, 13]: 201 mg/dL
